For the experiment, the target named is T1, Cannabinoid-1 receptor (CB1R) (Rattus norvegicus, UniProt P20272).
T1 construct: The tissue obtained from the brain of SD rats was homogenized; from tissue; host or cells: brain of SD rats (membrane pellet of the homogenate)
Put plainly: Cannabinoid-1 receptor (CB1R) binding affinity assay ([3H]CP-55940, rat CB-1 receptor binding protocol). To be noted: brain tissue of SD rats, [3H]CP-55940, 30° C. 60 min; read-out: IC50.

T1 sequence (P20272 whole entry): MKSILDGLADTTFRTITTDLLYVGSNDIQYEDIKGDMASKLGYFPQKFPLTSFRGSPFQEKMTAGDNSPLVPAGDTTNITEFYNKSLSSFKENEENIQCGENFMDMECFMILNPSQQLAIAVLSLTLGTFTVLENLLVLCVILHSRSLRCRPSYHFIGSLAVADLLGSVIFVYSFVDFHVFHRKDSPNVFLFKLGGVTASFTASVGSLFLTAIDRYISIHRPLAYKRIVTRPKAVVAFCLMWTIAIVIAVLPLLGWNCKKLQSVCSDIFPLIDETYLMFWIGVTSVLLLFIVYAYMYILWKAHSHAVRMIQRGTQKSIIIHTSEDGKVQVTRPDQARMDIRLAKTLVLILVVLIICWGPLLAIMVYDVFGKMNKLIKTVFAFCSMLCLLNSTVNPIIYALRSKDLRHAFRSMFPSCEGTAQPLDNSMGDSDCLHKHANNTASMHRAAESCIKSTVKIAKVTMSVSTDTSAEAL

The term IC50 denotes the concentration that gives 50% inhibition. `Cc1c(-c2n[nH]c(C3CCCC3)n2)nn(-c2ccc(Cl)cc2Cl)c1-c1ccc(Cl)cc1` [Example 611, 3-(5-(4-Chlorophenyl)-1-(2,4-dichlorophenyl)-4-methyl-1H-pyrazol-3-yl)-5-cyclopentyl-1H-1,2,4-triazole]: the half-inhibitory concentration (IC50) stood at 0.699 µM. Then `CCc1c(-c2nnc(C3(c4ccccc4)CCCC3)o2)nn(-c2ccc(Cl)cc2Cl)c1-c1ccc(Br)cc1` [Example 188, 2-(5-(4-bromophenyl)-1-(2,4-dichlorophenyl)-4-ethyl-1H-pyrazol-3-yl)-5-(1-phenylcyclopentyl)-1,3,4-oxadiazole], with 0.0155 µM; and `CCCc1c(-c2nnc(C3(C(F)(F)F)CC3)o2)nn(-c2ccc(Cl)cc2Cl)c1-c1ccc(Cl)cc1` [Example 191, 2-(5-(4-chlorophenyl)-1-(2,4-dichlorophenyl)-4-propyl-1H-pyrazol-3-yl)-5-(1-(trifluoromethyl)cyclopropyl)-1,3,4-oxadiazole], with 0.015 µM. Then `Cc1c(-c2nnc(C(C)(C)Oc3ccccn3)o2)nn(-c2ccc(Cl)cc2Cl)c1-c1ccc(Cl)cc1` [Example 80, 2-(5-(4-chlorophenyl)-1-(2,4-dichlorophenyl)-4-methyl-1H-pyrazol-3-yl)-5-(2-(pyridin-2-yloxy)propan-2-yl)-1,3,4-oxadiazole], with 0.0361 µM; and `CCC(C)(C)c1nnc(-c2nn(-c3ccc(Cl)cc3)c(-c3ccc(Br)cc3)c2C)s1` [Example 417, 2-(5-(4-bromophenyl)-1-(4-chlorophenyl)-4-methyl-1H-pyrazol-3-yl)-5-tert-pentyl-1,3,4-thiadiazole], with 0.134 µM; and `Cc1c(-c2nnc(-c3ccncc3)o2)nn(-c2ccc(Cl)cc2Cl)c1-c1ccc(Cl)cc1` [Example 2, 2-(5-(4-chlorophenyl)-1-(2,4-dichlorophenyl)-4-methyl-1H-pyrazol-3-yl)-5-(pyridin-4-yl)-1,3,4-oxadiazole], with 0.563 µM. Then `CC(C)(C)c1nnc(-c2nn(-c3ccc(Cl)cc3Cl)c(-c3ccc(Br)cc3)c2CO)s1` [Example 522, (5-(4-bromophenyl)-3-(5-tert-butyl-1,3,4-thiadiazol-2-yl)-1-(2,4-dichlorophenyl)-1H-pyrazol-4-yl)methanol], with 0.00461 µM. Regarding `COC(c1ccccc1)(c1nnc(-c2nn(-c3ccc(Cl)cc3Cl)c(-c3ccc(Cl)cc3)c2C)o1)C(F)(F)F` (centres unmarked) [Example 251, 2-(5-(4-chlorophenyl)-1-(2,4-dichlorophenyl)-4-methyl-1H-pyrazol-3-yl)-5-(2,2,2-trifluoro-1-methoxy-1-phenylethyl)-1,3,4-oxadiazole], the IC50 amounted to 0.0128 µM. With `Cc1c(-c2nnc(C3CCCCC3)s2)nn(-c2ccccc2Cl)c1-c1ccc(Cl)cc1` [Example 408, 2-(1-(2-chlorophenyl)-5-(4-chlorophenyl)-4-methyl-1H-pyrazol-3-yl)-5-cyclohexyl-1,3,4-thiadiazole] the figure was 0.061 µM; with `Cc1c(-c2nnc(C3(c4ccc(Cl)cc4)CC3)o2)nn(-c2c(Cl)cccc2Cl)c1-c1ccc(Cl)cc1` [Example 161, 2-(5-(4-chlorophenyl)-1-(2,6-dichlorophenyl)-4-methyl-1H-pyrazol-3-yl)-5-(1-(4-chlorophenyl)cyclopropyl)-1,3,4-oxadiazole], 0.0526 µM; with `Cc1c(-c2nnc(C3CCCO3)s2)nn(-c2ccc(Cl)cc2Cl)c1-c1ccc(Cl)cc1` (centres unmarked) [Example 359, 2-(5-(4-Chlorophenyl)-1-(2,4-dichlorophenyl)-4-methyl-1H-pyrazol-3-yl)-5-(tetrahydrofuran-2-yl)-1,3,4-thiadiazole], 0.0276 µM. Regarding `CC(=O)c1c(-c2nnc(C(C)(C)C)o2)nn(-c2ccc(Cl)cc2Cl)c1-c1ccc(Cl)cc1` [Example 213, 1-(3-(5-tert-butyl-1,3,4-oxadiazol-2-yl)-5-(4-chlorophenyl)-1-(2,4-dichlorophenyl)-1H-pyrazol-4-yl)ethanone], the half-maximal inhibitory concentration (IC50) was 0.0494 µM. Then `CC(C)(C)c1nnc(-c2nn(-c3ccc(Cl)cc3Cl)c(-c3ccc(Br)cc3)c2C=O)s1` [Example 527, 5-(4-bromophenyl)-3-(5-tert-butyl-1,3,4-thiadiazol-2-yl)-1-(2,4-dichlorophenyl)-1H-pyrazole-4-carbaldehyde], with 0.0101 µM; and `Cc1c(-c2nnc(C(C)(C)C)s2)nn(-c2ccc(Cl)cc2Cl)c1-c1ccccc1` [Example 421, 2-tert-butyl-5-(1-(2,4-dichlorophenyl)-4-methyl-5-phenyl-1H-pyrazol-3-yl)-1,3,4-thiadiazole], with 0.16 µM. With `CC(C)(C)c1nnc(-c2nn(-c3ccc(Cl)cc3Cl)c(-c3ccc(Cl)cc3)c2CO)s1` [Example 523, (3-(5-tert-butyl-1,3,4-thiadiazol-2-yl)-5-(4-chlorophenyl)-1-(2,4-dichlorophenyl)-1H-pyrazol-4-yl)methanol] the figure was 0.00688 µM; with `CCCn1nnc(-c2nn(-c3ccc(Cl)cc3Cl)c(-c3ccc(Cl)cc3)c2C)n1` [Example 566, 5-(5-(4-Chlorophenyl)-1-(2,4-dichlorophenyl)-4-methyl-1H-pyrazol-3-yl)-2-propyl-2H-tetrazole], 0.0621 µM; with `CC(F)c1c(-c2nnc(C(C)(C)C)o2)nn(-c2ccc(Cl)cc2Cl)c1-c1ccc(Br)cc1` (centres unmarked) [Example 211, 2-(5-(4-bromophenyl)-1-(2,4-dichlorophenyl)-4-(1-fluoroethyl)-1H-pyrazol-3-yl)-5-tert-butyl-1,3,4-oxadiazole], 0.0121 µM. As to `Cc1c(-c2nnc(C(C)(C)COCc3ccccc3)o2)nn(-c2ccc(Cl)cc2Cl)c1-c1ccc(Cl)cc1` [Example 254, 2-(1-(Benzyloxy)-2-methylpropan-2-yl)-5-(5-(4-chlorophenyl)-1-(2,4-dichlorophenyl)-4-methyl-1H-pyrazol-3-yl)-1,3,4-oxadiazole], the half-maximal inhibitory concentration (IC50) was 0.492 µM. Consider `Cc1c(-c2nnnn2CCc2ccccc2)nn(-c2ccc(Cl)cc2Cl)c1-c1ccc(Cl)cc1` [Example 591, 5-(5-(4-Chlorophenyl)-1-(2,4-dichlorophenyl)-4-methyl-1H-pyrazol-3-yl)-1-phenethyl-1H-tetrazole], for which the IC50 was 0.135 µM. Then `Cc1c(-c2nnnn2C2CCCC2)nn(-c2ccc(Cl)cc2Cl)c1-c1ccc(Br)cc1` [Example 606, 5-(5-(4-bromophenyl)-1-(2,4-dichlorophenyl)-4-methyl-1H-pyrazol-3-yl)-1-cyclopentyl-1H-tetrazole], with 0.0116 µM; and `CCC(C)(C)c1nnc(-c2nn(-c3ccc(Cl)cc3Cl)c(-c3ccc(Cl)cc3)c2Br)o1` [Example 342, 2-(4-bromo-5-(4-chlorophenyl)-1-(2,4-dichlorophenyl)-1H-pyrazol-3-yl)-5-tert-pentyl-1,3,4-oxadiazole], with 0.0278 µM. With `CCc1c(-c2nnc(C3(c4ccc(Cl)cc4)CC3)o2)nn(-c2ccc(Cl)cc2Cl)c1-c1ccc(Cl)cc1` [Example 133, 2-(5-(4-chlorophenyl)-1-(2,4-dichlorophenyl)-4-ethyl-1H-pyrazol-3-yl)-5-(1-(4-chlorophenyl)cyclopropyl)-1,3,4-oxadiazole] the figure was 0.00547 µM.

In the case of `Cc1c(-c2nnc(C3(c4ccc(F)cc4)CC3)o2)nn(-c2ccc(Cl)cc2Cl)c1-c1ccc(Cl)cc1` [Example 274, 2-(5-(4-chlorophenyl)-1-(2,4-dichlorophenyl)-4-methyl-1H-pyrazol-3-yl)-5-(1-(4-fluorophenyl)cyclopropyl)-1,3,4-oxadiazole], the 50% inhibitory concentration (IC50) turned out to be 0.0123 µM. Then `Clc1ccc(-c2c(Br)c(-c3nnc(C4CCCCC4)o3)nn2-c2ccc(Cl)cc2Cl)cc1` [Example 341, 2-(4-bromo-5-(4-chlorophenyl)-1-(2,4-dichlorophenyl)-1H-pyrazol-3-yl)-5-cyclohexyl-1,3,4-oxadiazole], with 0.0814 µM; and `COC(C)(C)c1nnc(-c2nn(-c3ccc(Cl)cc3Cl)c(-c3ccc(Cl)cc3)c2C)s1` [Example 419, 2-(5-(4-chlorophenyl)-1-(2,4-dichlorophenyl)-4-methyl-1H-pyrazol-3-yl)-5-(2-methoxypropan-2-yl)-1,3,4-thiadiazole], with 0.0621 µM. With `CC(C)(c1ccc(Cl)cc1)c1nnc(-c2nn(-c3ccc(Cl)cc3Cl)c(-c3ccc(Cl)cc3)c2Br)s1` [Example 546, 2-(4-bromo-5-(4-chlorophenyl)-1-(2,4-dichlorophenyl)-1H-pyrazol-3-yl)-5-(2-(4-chlorophenyl)propan-2-yl)-1,3,4-thiadiazole] the figure was 0.0295 µM. Then `CCC(C)c1nnc(-c2nn(-c3ccc(Cl)cc3Cl)c(-c3ccc(Cl)cc3)c2Br)s1` (centres unmarked) [Example 542, 2-(4-bromo-5-(4-chlorophenyl)-1-(2,4-dichlorophenyl)-1H-pyrazol-3-yl)-5-sec-butyl-1,3,4-thiadiazole], with 0.0519 µM; and `CC(C)(C)c1nnc(-c2nn(-c3ccc(Cl)cc3Cl)c(-c3ccc(Cl)cc3)c2Cl)s1` [Example 540, 2-tert-butyl-5-(4-chloro-5-(4-chlorophenyl)-1-(2,4-dichlorophenyl)-1H-pyrazol-3-yl)-1,3,4-thiadiazole], with 0.0981 µM.

With `Cc1c(-c2nnc(C3CCC3)s2)nn(-c2ccc(Cl)cc2Cl)c1-c1ccccc1` [Example 423, 2-cyclobutyl-5-(1-(2,4-dichlorophenyl)-4-methyl-5-phenyl-1H-pyrazol-3-yl)-1,3,4-thiadiazole], the IC50 is 0.168 µM. `Cc1c(-c2n[nH]c(C(C)C)n2)nn(-c2ccc(Cl)cc2Cl)c1-c1ccc(Cl)cc1` [Example 618, 3-(5-(4-chlorophenyl)-1-(2,4-dichlorophenyl)-4-methyl-1H-pyrazol-3-yl)-5-isopropyl-1H-1,2,4-triazole]: the IC50 was found to be 0.142 µM. Then `CCc1c(-c2nnc(C3(c4cccc(Cl)c4)CC3)s2)nn(-c2ccc(Cl)cc2Cl)c1-c1ccc(Br)cc1` [Example 495, 2-(5-(4-bromophenyl)-1-(2,4-dichlorophenyl)-4-ethyl-1H-pyrazol-3-yl)-5-(1-(3-chlorophenyl)cyclopropyl)-1,3,4-thiadiazole], with 0.00623 µM; and `CC(C)(C)c1nnc(-c2nn(-c3ccc(Cl)cc3Cl)c(-c3ccc(Cl)cc3)c2Cn2cnnn2)o1` [Example 301, 2-(4-((1H-tetrazol-1-yl)methyl)-5-(4-chlorophenyl)-1-(2,4-dichlorophenyl)-1H-pyrazol-3-yl)-5-tert-butyl-1,3,4-oxadiazole], with 0.00764 µM.

Source of the values: patent publication US7875647B2, “Heteroaryl-pyrazole derivatives as cannabinoid CB1 receptor antagonists” (Green Cross Corporation, priority 2006, dated 2011).
